Laboratory results from US20050267128A1, “Compounds, compositions and methods of modulating the mitochondrial apoptosis-induced channel (MAC)” (priority 2004, published 2005).
Entries after “also recorded” stand apart in the source; their conditions may differ.

Assays:
[1] = test system: mitochondrial apoptosis-induced channel (MAC); assay: Patch clamp of MAC in proteoliposomes containing mitochondrial outer membranes of apoptotic FL5.12 cells; assay type: biochemical, mouse; conditions: for voltage dependence of MAC blockade: current voltage curves between +40 mV and −40 mV; for Hill coefficient of MAC blockade / IC50 / IC50 for MAC, stated in words: patch clamp, proteoliposomes; for IC50: 150 mM KCl 5 mM HEPES pH 7.4, read-out: IC50 for blockade of MAC (inhibition of conductance); for reversibility of MAC blockade on removal by perfusion of the bath: wash out with 150 mM KCl 5 mM HEPES
Description: Hematopoietic FL5.12 cells are a mouse leukemia cell line that enters apoptosis after withdrawal of the growth factor interleukin-3 (IL-3) (Gross, A., Jockel, J., Wei, M. C. and Korsmeyer, S. J. (1998). Parental FL5.12 cells were cultured as previously described (Gross, A., Jockel, J., Wei, M. C. and Korsmeyer, S. J. (1998) EMBO J. 17, 3878-85) in Iscove's Modified Eagle Media (IMEM), 10% Fetal Bovine Serum, 10% WEHI-3B supplement (filtered supernatant of WEHI-3B cells secreting IL-3). Cultures were kept below 1.5 million cells/ml. Cells were washed three times in media without IL-3 (WEHI supplement) to induce apoptosis twelve hours prior to the isolation of mitochondria (Zamzami, N., Susin, S. A., Marchetti, P., Hirsch, T., Gomez-Monterrey, I., Castedo, M. and Kroemer, G. (1996).
Mitochondria were isolated from 2-15 g of FL5.12 cells as previously described for outer membrane preparations (Guo, L., Pietkiewicz, D., Pavlov, E. V., Kasianowicz, J. J., Korsmeyer, S. J., Antonsson, B. and Kinnally, K. W. (2004) American Journal of Physiology, Cell Biology. 286, C1109-17; Pavlov, E. V., Priault, M., Pietkiewicz, D., Cheng, E.H.-Y., Antonsson, B., Manon, S., Korsmeyer, S. J., Mannella, C. A. and Kinnally, K. W. (2001) J. Cell Biology 155, 725-732). Outer membranes were stripped from the inner membranes by French pressing isolated mitochondria using modifications of the method of Decker and Greenawalt (Decker, G. L. and Greenawalt, J. W. (1977) J. Ultrastr. Res. 59, 44-56) as described in (Pavlov, E. V., Priault, M., Pietkiewicz, D., Cheng, E.H.-Y., Antonsson, B., Manon, S., Korsmeyer, S. J., Mannella, C. A. and Kinnally, K. W. (2001) J. Cell Biology 155, 725-732). French pressing was done at 2000 PSI in 460 mM Mannitol 140 mM Sucrose 2 mM EDTA 10 mM HEPES pH 7.4. The pressed suspension was diluted 1:1 with 230 mM Mannitol 70 mM sucrose 1 mM EDTA 5 mM HEPES pH 7.4 and centrifuged at 10,000 rpm (12,000 g) for 10 minutes. Outer membranes were separated from inner membranes as described by Mannella (Mannella, C. A. (1982) J. Cell Biol. 94, 680-687).

[2] = test system: MAC from apoptotic HeLa cells; assay: Blockade of MAC in partially purified fractions from apoptotic HeLa cells treated with staurosporine; assay type: biochemical; conditions: unpublished results
[3] = test system: permeability transition pore (PTP); conditions: mitochondria; cited from earlier work
neurons = conditions: cited from earlier work

Compound	current flow through MAC upon perfusion of the bath ([1]; 50 μM, +20 mV)	voltage dependence of MAC blockade [1]	Hill coefficient of MAC blockade [1]	IC50 [1]	reversibility of MAC blockade on removal by perfusion of the bath [1]	blockade of MAC compared with FL5.12 preparation [2]	concentration that blocks the PTP [3]	concentration that blocks mitochondrial depolarization induced by glutamate (neurons)	effect on MAC activity ([1]; 300 μM)	effect on MAC activity ([1]; no concentration stated (FIG. 3B))	IC50 for MAC, stated in words [1]
CCCCOc1cc(C(=O)NCCN(CC)CC)c2ccccc2n1 [dibucaine]	rapidly reduced	not voltage dependent	1.3±0.1	39 µM	reversible	similar	50 to 100 µM	50 to 100 µM			
CCN(CC)CC(=O)Nc1c(C)cccc1C [lidocaine]									little effect	limited effects; also recorded: no effect	mM to M
CC(C)NCC(O)COc1cccc2ccccc12 (stereo not drawn) [propranolol]		not voltage dependent	2.1±0.2		not reversible						
CN1CCN(CCCN2c3ccccc3Sc3ccc(C(F)(F)F)cc32)CC1 [trifluoperazine]		not voltage dependent	1.4±0.2	0.9 µM	not reversible		10 to 20 µM	10 to 20 µM			high nanomolar range
